Experimental findings from the NIST ThermoML archive (doi:10.1016/j.tca.2011.12.010) are described below.

For the series the following is noted: DTA.

± gives the expanded uncertainty stated by the source.

In the case of `O=[N+]([O-])[O-].O=[N+]([O-])[O-].O=[N+]([O-])[O-].O=[N+]([O-])[O-].[K+].[K+].[Mg+2]` [bis-potassium magnesium nitrate], the Triple point temperature turned out to be 468.85 ± 0.5 K (Crystal 1) and 404.8 ± 0.5 K (Crystal 2).
